In the data set the test system is GENE-TOX genotoxicity assays, various organisms and cells. Nature of the data set: GENE-TOX mutagenicity studies. As to conditions: for call: Assay Type: In vivo carcinogenicity studies. The text has this:
GENE-TOX provides genetic toxicology (mutagenicity) test data from expert peer review of open scientific literature for more than 3,000 chemicals from the United States Environmental Protection Agency (EPA). GENE-TOX was established to select assay systems for evaluation, review data in the scientific literature, and recommend proper testing protocols and evaluation procedures for these systems.
GENE-TOX covers the years 1991 - 1998. It is no longer updated.
This is an archive assay for GENE-TOX mutagenicity studies.

The mark [1] stands for this setting: Species/Cell Type: Drosophila melanogaster, Assay Type: Sex-linked recessive lethal gene mutation, Assay Code: SRLT, Evaluation Type: Evaluation A (Pre-1980).
Where [2] appears, read: Species/Cell Type: Nonhuman, Assay Code: CCGT, Evaluation Type: Evaluation A (Pre-1980).
Setting [3] is: Species/Cell Type: Allium cepa, Assay Type: Chromosome aberrations, Assay Code: ALC+, Evaluation Type: Evaluation A (Pre-1980).
Setting [4] is: Species/Cell Type: Human diploid fibroblasts, Assay Type: Unscheduled DNA synthesis (UDS) in vitro, DNA effects, Assay Code: UDH-, Evaluation Type: Evaluation A (Pre-1980).
The mark [5] stands for this setting: Species/Cell Type: Saccharomyces cerevisiae, Assay Type: Reverse gene mutation, Assay Code: YERT, Evaluation Type: Evaluation A (Pre-1980).
Setting [6] is: Species/Cell Type: Saccharomyces cerevisiae, Assay Type: Mitotic recombination or gene conversion, Assay Code: YEC+, Evaluation Type: Evaluation A (Pre-1980).
The mark [7] stands for this setting: Species/Cell Type: Salmonella typhimurium (one or more of the five standard strains: TA98, TA100, TA1535, TA1537, and TA1538), Assay Type: Histidine reverse gene mutation, Ames assay, Assay Code: SAL+*, Activation: With metabolic activation, Evaluation Type: Evaluation A (Pre-1980).

Calls of active or inactive are those of the source. No rule for the calls is given here.

Turning to `O=C1C(N2CC2)=C(N2CC2)C(=O)C(N2CC2)=C1N1CC1`, the mutagenic call was “no conclusion” (Species/Cell Type: Drosophila melanogaster, Assay Type: Aneuploidy, partial sex chromosome loss, chromosome aberrations, Assay Code: DAPT, Evaluation Type: Evaluation A (Pre-1980)); “active; positive” (Species/Cell Type: Drosophila melanogaster, Assay Type: Aneuploidy, whole sex chromosome loss, chromosome aberrations, Assay Code: DAC+M, Evaluation Type: Evaluation A (Pre-1980)); “active; positive” (Species/Cell Type: Drosophila melanogaster, Assay Type: Sex-linked recessive lethal gene mutation, Assay Code: SRL+, Evaluation Type: Evaluation A (Pre-1980)); “active; positive” (Species/Cell Type: Neurospora crassa, Assay Type: Forward gene mutation, Assay Code: NEF+, Evaluation Type: Evaluation A (Pre-1980)); “active; positive” (Species/Cell Type: Neurospora crassa, Assay Type: Reverse gene mutation, Assay Code: NER+, Evaluation Type: Evaluation A (Pre-1980)).
Regarding `Nc1cccc2c(N)cccc12`, the call (Species/Cell Type: Nonhuman, Assay Code: CCG+, Evaluation Type: Evaluation A (Pre-1980)) is “active; positive”.
As for `CC(=O)c1ccc(S(=O)(=O)NC(=O)NC2CCCCC2)cc1`, the mutagenic call (Species/Cell Type: Nonhuman, Assay Type: Sister-chromatid exchange (SCE) in vivo, Assay Code: SC3T, Evaluation Type: Evaluation B (Post-1980)) was “no conclusion”.
Regarding `[2H]O[2H]`, the mutagenic call (Species/Cell Type: Drosophila melanogaster, Sex: Male, Assay Type: Heritable translocation test, chromosome aberrations, Assay Code: DHTT, Evaluation Type: Evaluation A (Pre-1980)) is “no conclusion”.
As to `FC1(F)C(F)(F)C(F)(F)C1(F)F`, the mutagenic call under setting [1] is listed as “no conclusion”.
In the case of `O=C1C=Cc2ccc3c4c(ccc1c24)-c1ccccc1C3=O`, the mutagenic call (Species/Cell Type: Chinese hamster lung (V79) cells, Assay Type: Forward gene mutation at the HPRT or ouabain locus, Assay Code: V79-, Evaluation Type: Evaluation A (Pre-1980)) was “inactive; negative”; the mutagenic call (Species/Cell Type: Salmonella typhimurium (one or more of the five standard strains: TA98, TA100, TA1535, TA1537, and TA1538), Assay Type: Histidine reverse gene mutation, Ames assay, Assay Code: SALT, Evaluation Type: Evaluation A (Pre-1980)) is “no conclusion”. Further, the call under setting [2] is reported as “no conclusion”.
With `c1ccc2c(c1)ccc1ccccc12`, the mutagenic call was “active; positive” under setting [3]; “inactive; negative” (Species/Cell Type: Escherichia coli polA (W3110 vs P3478), Assay Type: Rec-assay, DNA effects (bacterial DNA repair), Assay Code: RE2-, Evaluation Type: Evaluation A (Pre-1980)); “no conclusion” (Species/Cell Type: Escherichia coli polA (W3119 vs P3478), Assay Type: Rec-assay, DNA effects (bacterial DNA repair), Assay Code: RE1T, Evaluation Type: Evaluation A (Pre-1980)); “no conclusion” (Species/Cell Type: Fischer rat embryo (RLV/1706) cells, Assay Type: Cell transformation, viral enhanced, Assay Code: CTRT, Evaluation Type: Evaluation A (Pre-1980)); “inactive; negative” under setting [4]; “no conclusion” (Species/Cell Type: Mammalian polychromatic erythrocytes, Assay Type: Micronucleus test, chromosome aberrations, Assay Code: MNTT, Evaluation Type: Evaluation A (Pre-1980)). Moreover, the mutagenic call by setting is: (Species/Cell Type: Mouse (BALB/c-3T3) cells, Assay Type: Cell transformation, Assay Code: CTB-, Evaluation Type: Evaluation A (Pre-1980)) “inactive; negative”; (Species/Cell Type: Mouse embryo (AKR/ME) cells, Assay Type: Cell transformation, Assay Code: CTK+, Evaluation Type: Evaluation A (Pre-1980)) “active; positive”; (Species/Cell Type: Mouse prostate cells, Assay Type: Cell transformation, Assay Code: CTM-, Evaluation Type: Evaluation A (Pre-1980)) “inactive; negative”; (Species/Cell Type: Nonhuman, Assay Type: Chromosome aberrations in vitro, Assay Code: CY&-, Evaluation Type: Evaluation A (Pre-1980)) “inactive; negative”; (Species/Cell Type: Nonhuman, Assay Type: Sister-chromatid exchange (SCE) in vitro, Assay Code: SC2-, Evaluation Type: Evaluation A (Pre-1980)) “inactive; negative”; (Species/Cell Type: Nonhuman, Assay Type: Sister-chromatid exchange (SCE) in vivo, Assay Code: SC3+, Evaluation Type: Evaluation B (Post-1980)) “active; positive”. In addition, the mutagenic call by setting is: (Species/Cell Type: Nonhuman, Assay Type: Sister-chromatid exchange (SCE) in vivo, Assay Code: SC3T, Evaluation Type: Evaluation A (Pre-1980)) “no conclusion”; (Species/Cell Type: Saccharomyces cerevisiae, Assay Type: Mitotic recombination or gene conversion, Assay Code: YEH-, Evaluation Type: Evaluation A (Pre-1980)) “inactive; negative”; (Species/Cell Type: Salmonella typhimurium (one or more of the five standard strains: TA98, TA100, TA1535, TA1537, and TA1538), Assay Type: Histidine reverse gene mutation, Ames assay, Assay Code: SAL-, Evaluation Type: Evaluation A (Pre-1980)) “inactive; negative”; (Species/Cell Type: Salmonella typhimurium, Assay Type: Forward and reverse gene mutation, host-mediated assay, Assay Code: HMA-, Evaluation Type: Evaluation A (Pre-1980)) “inactive; negative”; (Species/Cell Type: Syrian hamster embryo (SHE) cells, Assay Type: Cell transformation, clonal assay, Assay Code: CTC-, Evaluation Type: Evaluation A (Pre-1980)) “inactive; negative”. In addition, under setting [2], the call is “no conclusion”.
As for `COc1ccc(/C=N\NC(=O)COc2ccc(Br)cc2CN2CCCCC2)cc1`, the mutagenic call under setting [5] is given as “no conclusion”.
Take `[CH3][Hg][CH3]`: the mutagenic call runs as follows: (Species/Cell Type: Mammalian oocytes or early embryo, Assay Type: Chromosome aberrations in vivo, Assay Code: CYO-, Evaluation Type: Evaluation A (Pre-1980)) “inactive; negative”; (Species/Cell Type: Rodents, Sex: Male, Assay Type: Dominant lethal test, Assay Code: DLTT, Evaluation Type: Evaluation A (Pre-1980)) “no conclusion”.
Regarding `O=c1[nH]c(=O)n([C@H]2C[C@H](O)[C@@H](CO)O2)cc1/C=C/C(F)(F)F`, for the setting “Species/Cell Type: Human, Assay Type: Sister-chromatid exchange (SCE) in vitro, Assay Code: SC1+D, Dose Response: With dose response, Evaluation Type: Evaluation B (Post-1980)”, the mutagenic call is “active; positive”.
Turning to `CC(C)N1C(=O)c2ccccc2NS1(=O)=O`, the mutagenic call (Species/Cell Type: Saccharomyces cerevisiae, Assay Type: Mitotic recombination or gene conversion, Assay Code: YEC-, Evaluation Type: Evaluation A (Pre-1980)) is “inactive; negative”.
As for `COc1cc2ccc(=O)oc2cc1O`, where the note is “Species/Cell Type: Allium cepa, Assay Type: Chromosome aberrations, Assay Code: ALC+D, Dose Response: With dose response, Evaluation Type: Evaluation A (Pre-1980)”, the mutagenic call was “active; positive”.
As to `O=NN(CCCl)C(=O)NCCCCO`, the mutagenic call under setting [6] was “active; positive”.
Consider `CCN(CC)CCNc1ccc(O)c2c1C(=O)c1ccccc1S2=O` (centres undefined), for which the mutagenic call (Species/Cell Type: Fischer rat embryo (RLV/1706) cells, Assay Type: Cell transformation, viral enhanced, Assay Code: CTR+, Evaluation Type: Evaluation A (Pre-1980)) is “active; positive”.
Consider `O=NN(CCO)CCCCO`, for which the mutagenic call under setting [7] is “active; positive”.
In the case of `O=c1ccc2ccc3occc3c2o1`, the mutagenic call by setting is: (Species/Cell Type: Mammalian cell culture, nonhuman, Assay Type: Micronucleus test in vitro, chromosome aberrations, Assay Code: MN&+, Evaluation Type: Evaluation A (Pre-1980)) “active; positive”; under setting [5], “no conclusion”.
`CCCN(N=O)C(N)=O`: the mutagenic call is, setting by setting: under setting [4], “inactive; negative”; under setting [6], “active; positive”. Further, under “Species/Cell Type: Nonhuman, Assay Code: CCG+L, Evaluation Type: Evaluation A (Pre-1980)”, the call was “active; positive”.
`ClC(Cl)(Cl)C1CO1` (centres undefined): the mutagenic call was “no conclusion” under setting [1]; “active; positive” (Species/Cell Type: Human lymphocytes, Assay Type: Sister-chromatid exchange (SCE) in vitro, Assay Code: SCL+, Evaluation Type: Evaluation B (Post-1980)); “active; positive” (Species/Cell Type: Human, Assay Type: Sister-chromatid exchange (SCE) in vitro, Assay Code: SC1+, Evaluation Type: Evaluation B (Post-1980)); “inactive; positive without activation, negative with activation” (Species/Cell Type: Saccharomyces cerevisiae, Assay Type: Mitotic recombination or gene conversion, Assay Code: YEH+/-*, Activation: With metabolic activation, Evaluation Type: Evaluation A (Pre-1980)).
As to `Nc1c(Cl)cc(-c2cc(Cl)c(N)c(Cl)c2)cc1Cl`, the mutagenic call (Species/Cell Type: Human diploid fibroblasts, Assay Type: Unscheduled DNA synthesis (UDS) in vitro, DNA effects, Assay Code: UDH+*, Activation: With metabolic activation, Evaluation Type: Evaluation A (Pre-1980)) is “active; positive”.
In the case of `CCNCCNc1ccc(CO)c2sc3cc(Cl)ccc3c(=O)c12`, the mutagenic call (Species/Cell Type: Mouse lymphoma (L5178Y) cells, Assay Type: Forward gene mutation at the thymidine kinase (TK) locus, chromosome aberrations, Assay Code: L51+, Evaluation Type: Evaluation A (Pre-1980)) is “active; positive”.
`CC1CN(N=O)CC(C)O1` (centres undefined): under setting [7], the mutagenic call is “active; positive”.
Turning to `Clc1c(N2CC2)nc(N2CC2)nc1N1CC1`, where the note is “Species/Cell Type: Aspergillus nidulans, Assay Type: Reverse gene mutation, Assay Code: ASR+, Evaluation Type: Evaluation A (Pre-1980)”, the mutagenic call is “active; positive”.
Consider `COc1ccc(O)cc1`, for which the mutagenic call under setting [3] is “active; positive”.
For the compound `COC(=O)Nc1ncc(-c2ccc(OC)cc2)[nH]1`, the mutagenic call (Species/Cell Type: Salmonella typhimurium, Assay Type: Forward and reverse gene mutation, host-mediated assay, Assay Code: HMA+, Evaluation Type: Evaluation A (Pre-1980)) was “active; positive”.
